# From US20260174786A1, “A NITROGEN-CONTAINING SPIROCYCLIC COMPOUND, PHARMACEUTICAL COMPOSITION AND USE THEREOF” (Prime Gene Therapeutics Co., Ltd., priority 2022, published 2026)
# Target: T1, hTRPV3 (Homo sapiens, UniProt Q8NET8)
# T1 construct: expressed in transfected cells; host or cells: HEK-293
# T1 sequence (Q8NET8 1-790): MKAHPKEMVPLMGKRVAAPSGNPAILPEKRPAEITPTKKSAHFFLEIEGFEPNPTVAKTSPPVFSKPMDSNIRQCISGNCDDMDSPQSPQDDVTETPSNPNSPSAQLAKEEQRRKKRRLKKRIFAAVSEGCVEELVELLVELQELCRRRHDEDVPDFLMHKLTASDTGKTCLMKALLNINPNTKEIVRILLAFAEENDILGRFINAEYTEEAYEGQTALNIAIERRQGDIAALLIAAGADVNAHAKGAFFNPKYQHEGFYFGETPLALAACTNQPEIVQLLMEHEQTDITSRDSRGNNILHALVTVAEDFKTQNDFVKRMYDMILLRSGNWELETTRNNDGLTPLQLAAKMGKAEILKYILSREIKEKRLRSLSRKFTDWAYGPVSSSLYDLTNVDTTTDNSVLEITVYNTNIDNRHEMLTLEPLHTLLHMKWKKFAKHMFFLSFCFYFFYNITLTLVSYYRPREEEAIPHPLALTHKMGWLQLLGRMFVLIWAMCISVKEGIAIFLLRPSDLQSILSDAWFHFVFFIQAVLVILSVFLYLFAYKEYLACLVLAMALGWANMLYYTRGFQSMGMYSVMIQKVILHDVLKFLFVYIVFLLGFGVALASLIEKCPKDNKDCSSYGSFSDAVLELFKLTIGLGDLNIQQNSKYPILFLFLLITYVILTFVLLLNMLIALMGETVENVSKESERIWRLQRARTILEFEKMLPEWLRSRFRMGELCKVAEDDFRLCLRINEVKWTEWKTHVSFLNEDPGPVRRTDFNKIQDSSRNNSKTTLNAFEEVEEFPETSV
# Test: Whole cell patch clamp inhibition rate test on HEK-293 cells instantaneously expressing TRPV3
# Assay type: cell-based
# Conditions: HEK293; hTRPV3, single concentration 0.3 μM
# Procedure: In this study, HEK-293 cells instantaneously expressing TRPV3 were used for experimental detection.
# The operation steps are as follows:
# The cells were cultured in DMEM medium containing 10% fetal bovine serum at a temperature of 37° C. and a carbon dioxide concentration of 5%.
# Day 1: Cells were inoculated into a 6-well plate with 5×10^5 cells per well.
# Day 2: Transfection was performed using Lipofectamine 3000 transfection reagent, with a plasmid to transfection reagent ratio of 1 μg: 2 μL. The total amount of plasmid used per well was 3 μg. Specifically, two sterile centrifuge tubes were taken and 100 μL Opti-MEM was added to each tube. 6 μL Lipofectamine 3000 was added to one tube and mixed well; and 3 μg plasmid was added to another tube and mixed well, and then 6 μL P3000 was added and mixed well; Subsequently, the diluted plasmid DNA was added to diluted Lipofectamine 3000 and incubated at room temperature for 10-15 min. DNA liposome complex was dropped into the cells, shaked gently and mixed well, and then cultured in an incubator. The liquid was changed after 4 to 6 h.
# Day 3: The cells were digested and seeded into 24 well plates with pre-placed cover slides, with 8×10^3 cells per well.
# Day 4: Patch clamp testing was performed.
# The voltage stimulation protocol for recording TRPV3 current using whole cell patch clamp is as follows: after forming a whole cell seal, a cell membrane voltage clamp was set at −80 mV. Firstly, a membrane potential was recorded at 0 mV, and then a voltage was command to start from −100 mV, to depolarize in the form of Ramp to 100 mV within 100 ms, and finally restore to 0 mV. Data collection was repeated every 5 seconds to observe the inhibitory effect of pharmaceutical on peak current. Experimental data was collected by EPC 10 amplifier (HEKA) and stored in PatchMaster (HEKA) software.
# A microelectrode puller was used to pull the capillary glass tube into a recording electrode. The electrode filled with intracellular fluid was inserted into a microelectrode holder, and a microelectrode manipulator was operated under an inverted microscope to immerse the electrode in extracellular fluid and an electrode resistance (Rpip) was recorded. The electrode was brought into contact with the cell surface and a negative pressure suction was applied to form a high resistance seal (GΩ). At this point, a fast capacitance compensation was performed, and negative pressure was continued to apply in order to break the cell membrane, so that a whole cell recording mode was formed. Then, a slow capacitance compensation was performed and experimental parameters such as film capacitance (Cm) and series resistance (Rs) were recorded. No leakage compensation was provided.
# When the TRPV3 current recorded by the whole cell had stabilized, administration was started. Each pharmaceutical concentration acted for 5 minutes (or until the current stabilized) before detecting the next concentration. A plurality of concentrations was tested for each test compound. A cover glass covered with cells was placed in a recording bath under an inverted microscope. A blank control extracellular solution and a working fluid for the compound to be tested sequentially flowed through the recording bath from low concentration to high concentration using gravity perfusion to act on the cells. Liquid exchange was performed using a peristaltic pump during recording. The current detected by each cell in the extracellular fluid without the compound served as its own control group. Each concentration was independently tested twice using at least two cells. All electrophysiological tests were conducted at room temperature.
row,Structure (SMILES),inhibition at 0.3 µM [%]
1,"O=C(c1ccc(F)cn1)N1CCC2(CCC(O)c3cc(-c4ccccc4C4CC4)ccc32)C1 (centres unmarked) [Example 1, (6-(2-Cyclopropylphenyl)-4-hydroxy-3,4-dihydro-2H-spiro[naphthalene-1,3′-pyrrolidine]-1′-yl) (5-fluoropyridin-2-yl) ketone]",< 25
2,"O=C(c1ccc(Cl)cn1)N1CCC2(CCC(O)c3cc(-c4ccccc4C4CC4)ccc32)C1 (centres unmarked) [Example 2, (5-chloropyridin-2-yl)(6-(2-cyclopropylphenyl)-4-hydroxy-3,4-dihydro-2H-spiro[naphthalene-1,3′-pyrrolidine]-1′-yl) ketone]",< 25
3,"O=C(c1ccc(F)cn1)N1CCC2(CC1)CC(O)c1cc(-c3ccccc3C3CC3)ccc12 (centres unmarked) [Example 3, (5-(2-cyclopropylphenyl)-3-hydroxy-2,3-dihydrospiro[indene-1,4′-piperidine]-1′-yl)(5-fluoropyridin-2-yl) ketone]",25 to 50
4,"CC(C)c1ccccc1-c1ccc2c(c1)C(O)CC21CCN(C(=O)c2ccc(F)cn2)CC1 (centres unmarked) [Example 4, (5-fluoropyridin-2-yl)(3-hydroxy-5-(2-isopropylphenyl)-2,3-dihydrospiro[indene-1,4′-piperidine]-1′-yl) ketone]",25 to 50
5,"CC1(O)CC2(CCN(C(=O)c3ccc(F)cn3)C2)c2ccc(-c3ccccc3C3CC3)cc21 (centres unmarked) [Example 5, (5-(2-cyclopropylphenyl)-3-hydroxy-3-methyl-2,3-dihydrospiro[indene-1,3′-pyrrolidine]-1′-yl)(5-fluoropyridin-2-yl) ketone]",< 25
6,"O=C(c1ccc(F)cn1)N1CCC2(C1)CC(O)(C(F)(F)F)c1cc(-c3ccccc3C3CC3)ccc12 (centres unmarked) [Example 7, (5-(2-cyclopropylphenyl)-3-hydroxy-3-(trifluoromethyl)-2,3-dihydrospiro[indene-1,3′-pyrrolidine]-1′-yl)(5-fluoropyridin-2-yl) ketone]",< 25
7,"O=C(c1ccc(F)cn1)N1CCC2(C1)OB(O)c1ccccc12 (centres unmarked) [Example 8, (5-fluoropyridin-2-yl) (1-hydroxy-1H-spiro[benzo[c][1,2]oxaborolane-3,3′-pyrrolidine]-1′-yl) ketone]",< 25
8,"O=C(c1ccc(F)cn1)N1CCC2(C1)OB(O)c1cc(-c3ccccc3C3CC3)ccc12 (centres unmarked) [Example 9, (6-(2-cyclopropylphenyl)-1-hydroxy-1H-spiro[benzo[c][1,2]oxaborolane-3,3′-pyrrolidine]-1′-yl)(5-fluoropyridin-2-yl) ketone]",25 to 50
9,"O=C(c1ccc(Cl)cn1)N1CCC2(C1)OB(O)c1cc(-c3ccccc3C3CC3)ccc12 (centres unmarked) [Example 10, (5-chloropyridin-2-yl)(6-(2-cyclopropylphenyl)-1-hydroxy-1H-spiro[benzo[c][1,2]oxaborolane-3,3′-pyrrolidine]-1′-yl) ketone]",25 to 50
10,"[2H]C1(O)CC2(CN(C(=O)c3ccc(F)cn3)C([2H])([2H])C2)c2ccc(-c3ccccc3C3CC3)cc21 (centres unmarked) [Example 11, (5-(2-cyclopropylphenyl)-3-hydroxy-2,3-dihydrospiro[indene-1,3′-pyrrolidine]-1′-yl-3,5′,5′-d3)(5-fluoropyridin-2-yl) ketone]",70 to 100
11,"[2H]C1(O)CC2(CCN(C(=O)c3ccc(F)cn3)C2)c2ccc(-c3ccccc3C3CC3)cc21 (centres unmarked) [Example 12, (5-(2-cyclopropylphenyl)-3-hydroxy-2,3-dihydrospiro[indene-1,3′-pyrrolidine]-1′-yl-3-d)(5-fluoropyridin-2-yl) ketone]",70 to 100
12,"Cc1nc(C(=O)N2CCC3(CC(O)c4cc(-c5ccccc5C5CC5)ccc43)C2)ccc1O (centres unmarked) [Example 13, (5-(2-cyclopropylphenyl)-3-hydroxy-2,3-dihydrospiro[indene-1,3′-pyrrolidine]-1′-yl)(5-hydroxy-6-methylpyridin-2-yl) ketone]",< 25
13,"O=C(c1ccc(Cl)cn1)N1CCC2(CC(O)c3cc(-c4ccccc4C4CC4)ccc32)C1 (centres unmarked) [Example 14, (5-chloropyridin-2-yl)(5-(2-cyclopropylphenyl)-3-hydroxy-2,3-dihydrospiro[indene-1,3′-pyrrolidine]-1′-yl) ketone]",70 to 100
14,"CC(C)c1ccccc1-c1ccc2c(c1)C(O)CC21CCN(C(=O)c2ccc(F)cn2)C1 (centres unmarked) [Example 16, (5-fluoropyridin-2-yl)(3-hydroxy-5-(2-isopropylphenyl)-2,3-dihydrospiro[indene-1,3′-pyrrolidine]-1′-yl) ketone]",70 to 100
15,"O=C(c1csc(Cl)n1)N1CCC2(CC(O)c3cc(-c4ccccc4C4CC4)ccc32)C1 (centres unmarked) [Example 17, (2-chlorothiazol-4-yl)(5-(2-cyclopropylphenyl)-3-hydroxy-2,3-dihydrospiro[indene-1,3′-pyrrolidine]-1′-yl) ketone]",70 to 100
16,"CC(C)c1ccccc1-c1ccc2c(c1)C(O)CC21CCN(C(=O)c2csc(Cl)n2)C1 (centres unmarked) [Example 18, (2-chlorothiazol-4-yl)(3-hydroxy-5-(2-isopropylphenyl)-2,3-dihydrospiro[indene-1,3′-pyrrolidine]-1′-yl) ketone]",70 to 100
17,"O=C(c1cccc(C2CC2)n1)N1CCC2(CC(O)c3cc(-c4ccccc4C4CC4)ccc32)C1 (centres unmarked) [Example 19, (5-(2-cyclopropylphenyl)-3-hydroxy-2,3-dihydrospiro[indene-1,3′-pyrrolidine]-1′-yl)(6-cyclopropylpyridin-2-yl) ketone]",70 to 100
18,"CC(C)c1ccccc1-c1ccc2c(c1)C(O)CC21CCN(C(=O)c2cccc(C3CC3)n2)C1 (centres unmarked) [Example 20, (6-cyclopropylpyridin-2-yl)(3-hydroxy-5-(2-isopropylphenyl)-2,3-dihydrospiro[indene-1,3′-pyrrolidine]-1′-yl) ketone]",70 to 100
19,"O=C(c1ccc(F)cn1)N1CC[C@]2(C[C@@H](O)c3cc(-c4ccccc4C4CC4)ccc32)C1 [Example 22, ((1R,3R)-5-(2-cyclopropylphenyl)-3-hydroxy-2,3-dihydrospiro[indene-1,3′-pyrrolidine]-1′-yl)(5-fluoropyridin-2-yl)ketone]",< 25
20,"O=C(c1ccc(F)cn1)N1CC[C@]2(C[C@H](O)c3cc(-c4ccccc4C4CC4)ccc32)C1 [Example 23, ((1R,3S)-5-(2-cyclopropylphenyl)-3-hydroxy-2,3-dihydrospiro[indene-1,3′-pyrrolidine]-1′-yl)(5-fluoropyridin-2-yl)ketone]",< 25
21,"O=C(c1ccc(F)cn1)N1CC[C@@]2(C[C@H](O)c3cc(-c4ccccc4C4CC4)ccc32)C1 [Example 24, ((1S,3S)-5-(2-cyclopropylphenyl)-3-hydroxy-2,3-dihydrospiro[indene-1,3′-pyrrolidine]-1′-yl)(5-fluoropyridin-2-yl)ketone]",< 25
22,CC(C)c1ccccc1-c1ccc2c(c1)[C@H](O)C[C@@]21CCN(C(=O)c2ccc(F)cn2)C1 [Example 25],70 to 100
23,CC(C)c1ccccc1-c1ccc2c(c1)[C@H](O)C[C@]21CCN(C(=O)c2ccc(F)cn2)C1 [Example 26],< 25
